Reference: PubChem BioAssay (NCI)
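Dose response: 5 concentrations. Exposure: 48 h. Format: 96-well plates. Endpoint: linear interpolation; highest concentration if not reached. Here, GI50 denotes the concentration required for 50% inhibition of growth. TGI marks complete inhibition of growth.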

How the values were obtained:
Experiment in all cases: growth of human tumour cells (NCI), 48 h
NCI-H522 lung = test system: NCI-H522 lung
SR leukemia = test system: SR leukemia
M14 melanoma = test system: M14 melanoma
CAKI-1 renal = test system: CAKI-1 renal
HOP-62 NSCLC = test system: HOP-62 NSCLC
EKVX NSCLC = test system: EKVX NSCLC
786-0 renal = test system: 786-0 renal
NCI-H226 lung = test system: NCI-H226 lung
IGROV1 ovarian = test system: IGROV1 ovarian
SK-OV-3 ovarian = test system: SK-OV-3 ovarian

Row | SMILES | GI50 (NCI-H522 lung) | TGI (NCI-H522 lung) | GI50 (SR leukemia) | TGI (SR leukemia) | GI50 (M14 melanoma) | TGI (M14 melanoma) | GI50 (CAKI-1 renal) | TGI (CAKI-1 renal) | GI50 (HOP-62 NSCLC) | TGI (HOP-62 NSCLC) | GI50 (EKVX NSCLC) | TGI (EKVX NSCLC) | GI50 (786-0 renal) | TGI (786-0 renal) | GI50 (NCI-H226 lung) | TGI (NCI-H226 lung) | GI50 (IGROV1 ovarian) | TGI (IGROV1 ovarian) | GI50 (SK-OV-3 ovarian) | TGI (SK-OV-3 ovarian)
1 | CCOC(=O)C1=C(C)N(Cc2ccc(Cl)cc2Cl)[C@]2(C#N)C(O)=C(Cl)C(Cl)=C(O)[C@]12C#N | 42.5 µM | > 100 µM | 16 µM | 38.9 µM | > 100 µM | > 100 µM | > 100 µM | > 100 µM | > 100 µM | > 100 µM | > 100 µM | > 100 µM | > 100 µM | > 100 µM | > 100 µM | > 100 µM | > 100 µM | > 100 µM | > 100 µM | > 100 µM
2 | O=c1c2cccc3cccc(c4n1CCCN=4)c32 | – | > 100 µM | – | > 100 µM | – | > 100 µM | – | > 100 µM | – | > 100 µM | – | > 100 µM | – | > 100 µM | – | > 100 µM | – | > 100 µM | – | > 100 µM
3 | O=C1c2ccoc2C(=O)c2oc(=O)ccc21 | – | 4.18 µM | – | 3.83 µM | – | 21.8 µM | – | > 62.2 µM | – | > 61.1 µM | – | 35.2 µM | – | 30.8 µM | – | > 56.7 µM | – | 40 µM | – | > 57.9 µM
4 | CC(C)(C)c1cc(C(OCCl)(C(F)(F)F)C(F)(F)F)c2c(c1)C(C(F)(F)F)(C(F)(F)F)OC21c2ccccc2C(=O)c2ccccc21 | – | > 100 µM | – | > 100 µM | – | > 100 µM | – | > 100 µM | – | – | – | > 100 µM | – | > 100 µM | – | > 100 µM | – | – | – | –
5 | O=c1c2ccccc2n2cnc3ccc(NCCNCCO)c1c32 | – | 6.2 µM | – | > 33.6 µM | – | 8.07 µM | – | 9.46 µM | – | 10.9 µM | – | 8.49 µM | – | 10.4 µM | – | 6.5 µM | – | 9.59 µM | – | 19.6 µM
6 | Cc1cc(-c2ccco2)cc(C)c1/C=C/c1cncc(-c2nn[nH]n2)c1 | > 25 µM | > 25 µM | > 25 µM | > 25 µM | > 25 µM | > 25 µM | > 25 µM | > 25 µM | > 25 µM | > 25 µM | > 25 µM | > 25 µM | > 25 µM | > 25 µM | > 25 µM | > 25 µM | > 25 µM | > 25 µM | > 25 µM | > 25 µM
7 | O=C(Nc1nc2c(s1)CCc1c-2c(Br)n(Cc2ccccc2)c1Br)c1ccccc1 | 4.41 µM | 32.5 µM | 12.1 µM | > 100 µM | 9.94 µM | > 100 µM | 9.89 µM | > 100 µM | 2.13 µM | 6.72 µM | – | – | 2.73 µM | 11.9 µM | 1.87 µM | 9.16 µM | 2.68 µM | 33.4 µM | 3.23 µM | 16.3 µM
8 | O=[N+]([O-])c1ccc(/C=C\c2ccc3c(c2)OCO3)c([N+](=O)[O-])c1 | – | 25.6 µM | – | 23.6 µM | – | 31.1 µM | – | 92 µM | – | 69 µM | – | 28.1 µM | – | > 100 µM | – | – | – | 24.7 µM | – | 35.4 µM
9 | COC(=O)c1cc2ccccc2c2nc3ccccc3c(Cl)c12 | – | > 100 µM | – | > 100 µM | – | > 100 µM | – | > 100 µM | – | > 100 µM | – | > 100 µM | – | > 100 µM | – | – | – | > 100 µM | – | –
10 | CCOC(=O)c1cc2cc(OCc3ccccc3)ccc2[nH]1 | > 100 µM | > 100 µM | > 100 µM | > 100 µM | > 100 µM | > 100 µM | > 100 µM | > 100 µM | 92.7 µM | > 100 µM | > 100 µM | > 100 µM | > 100 µM | > 100 µM | > 100 µM | > 100 µM | > 100 µM | > 100 µM | > 100 µM | > 100 µM
11 | Nc1n[nH]c2ccc([C@@H]3Nc4c(F)cc5[nH]ncc5c4[C@H]4C5CCC(C5)[C@@H]34)cc12 (stereo partly specified) | 0.102 µM | 2.17 µM | 0.0779 µM | 15.1 µM | 0.206 µM | > 32.8 µM | 0.329 µM | > 47.5 µM | 0.432 µM | 38.5 µM | 0.632 µM | > 71.5 µM | 0.74 µM | 25 µM | 0.629 µM | > 19.9 µM | 0.391 µM | > 46.2 µM | 0.686 µM | > 58.2 µM
12 | CCC1=C(c2ccc(OC)cc2)CC[C@]2(CCNC2=O)[C@@H]1C | – | 56.3 µM | – | 76.6 µM | – | 62.7 µM | – | > 89.7 µM | – | > 100 µM | – | > 86.7 µM | – | > 100 µM | – | > 100 µM | – | > 100 µM | – | 97.1 µM
13 | O=C(O)Cn1ccc(=O)c2c([N+](=O)[O-])cccc21 | – | > 100 µM | – | > 100 µM | – | > 100 µM | – | > 100 µM | – | > 100 µM | – | – | – | > 100 µM | – | > 100 µM | – | > 100 µM | – | > 100 µM
14 | CCOC(=O)n1c2ccccc2c(=O)n1CCO | – | > 100 µM | – | > 100 µM | – | > 100 µM | – | > 100 µM | – | > 100 µM | – | > 100 µM | – | > 100 µM | – | > 100 µM | – | > 100 µM | – | > 100 µM
15 | Oc1ccc(-c2[nH]c3ccccc3c2-c2nc3ccccc3o2)cc1 | 2.83 µM | 9.65 µM | 4.78 µM | 25.7 µM | 3.26 µM | 13.8 µM | 2.62 µM | 14.2 µM | 5.01 µM | 18.2 µM | 4.76 µM | 21.9 µM | 4.4 µM | 15.2 µM | 3.14 µM | 15.3 µM | 3.34 µM | 16.3 µM | 5.03 µM | 17.3 µM
16 | Nc1c(C(=O)Nc2ccccc2O)[n+]([O-])c2ccccc2[n+]1[O-] | – | > 100 µM | – | > 100 µM | – | > 100 µM | – | > 100 µM | – | > 100 µM | – | > 100 µM | – | > 100 µM | – | > 100 µM | – | > 100 µM | – | > 100 µM
17 | CC1=NN(c2nc(N)nc(/C=C\c3ccccc3)n2)C(C)(C)C1 | 3.14 µM | 13.5 µM | 6.12 µM | 27.8 µM | 9.76 µM | 23.7 µM | 15.4 µM | 30.9 µM | 14.9 µM | 29.7 µM | 12.5 µM | 45.8 µM | 15 µM | 29.3 µM | 13.7 µM | 28.6 µM | 8.99 µM | 24 µM | 6.66 µM | 36.1 µM
